Test results reported in patent US11613538B2, “Method of inhibiting or reducing a viral infection” (PTC Therapeutics, Inc., priority 2009, dated 2023).

tested on: hypoxia-induced VEGF production in HeLa cells; test: cells; type: cell-based, human; details: Homo sapiens, HeLa

`CCC(C)OC(=O)N1CCc2c([nH]c3ccc([S+](C)[O-])cc23)C1c1ccc(OC)cc1` (centres unmarked) [Compound 1493] and `COc1ccc(C2c3[nH]c4ccc([S+](C)[O-])cc4c3CCN2C(=O)OC(C)(C)C)cc1` (centres unmarked) [Compound 1494] cannot be ordered by EC50: > 1000 nM for the first, > 1000 nM for the second.

`COc1ccc(C2NCCc3c2[nH]c2ccc([S+](C)[O-])cc32)cc1` (centres unmarked) [Compound 1495] and `COc1ccc(C2NCCc3c2[nH]c2ccc(S(C)(=O)=O)cc32)cc1` (centres unmarked) [Compound 1504] cannot be ordered by EC50: > 1000 nM for the first, > 1000 nM for the second.

`CCOC(=O)N1CCc2c([nH]c3ccc(S(C)(=O)=O)cc23)C1c1ccc(OC)cc1` (centres unmarked) [Compound 1496] and `COc1ccc(C2c3[nH]c4ccc(S(C)(=O)=O)cc4c3CCN2C(=O)OC(C)(C)C)cc1` (centres unmarked) [Compound 1502] cannot be ordered by EC50: > 1000 nM for the first, > 1000 nM for the second.

`COc1ccc(C2c3[nH]c4ccc(S(C)(=O)=O)cc4c3CCN2C(=O)Oc2ccc(Cl)cc2)cc1` (centres unmarked) [Compound 1497] and `COc1ccc(C2c3[nH]c4ccc(S(C)(=O)=O)cc4c3CCN2C(=O)Oc2ccc(F)cc2)cc1` (centres unmarked) [Compound 1499] cannot be ordered by EC50: > 1000 nM for the first, > 1000 nM for the second.

Compared with `COc1ccc(OC(=O)N2CCc3c([nH]c4ccc(S(C)(=O)=O)cc34)C2c2ccc(OC)cc2)cc1` (centres unmarked) [Compound 1498], `COc1ccc(OC(=O)N2CCc3c([nH]c4ccc(C#N)cc34)C2c2ccc(OC)cc2)cc1` (centres unmarked) [Compound 1516] is lower in EC50: > 1000 nM for the first, 200 to 1000 nM for the second.

`COc1ccc(C2c3[nH]c4ccc(S(C)(=O)=O)cc4c3CCN2C(=S)Oc2ccc(F)cc2)cc1` (centres unmarked) [Compound 1500] and `COc1ccc(C2c3[nH]c4ccc(S(C)(=O)=O)cc4c3CCN2C(=S)Oc2ccc(C)cc2)cc1` (centres unmarked) [Compound 1503] cannot be ordered by EC50: > 1000 nM for the first, > 1000 nM for the second.

`COc1ccc(C2c3[nH]c4ccc(Cl)cc4c3CCN2C(=O)[C@H](Cc2ccccc2)NC(C)=O)cc1` (some centres unmarked) [Compound 1505] and `CC(=O)N[C@@H](Cc1ccccc1)C(=O)N1CCc2c([nH]c3ccc(Cl)cc23)C1c1ccc(OCCN2CCOCC2)cc1` (some centres unmarked) [Compound 1506] cannot be ordered by EC50: > 1000 nM for the first, > 1000 nM for the second.

`O=C(/C=C/c1ccccc1)N1CCc2c([nH]c3ccc(Cl)cc23)C1c1ccc(OCCCn2cncn2)cc1` (centres unmarked) [Compound 1508] and `C/C=C/C(=O)N1CCc2c([nH]c3ccc(Cl)cc23)C1c1ccc(OCCCn2cncn2)cc1` (centres unmarked) [Compound 1510] fall in the same range of EC50: 8 to 40 nM for the first, 8 to 40 nM for the second.

Compared with `C/C=C/C(=O)N1CCc2c([nH]c3ccc(Cl)cc23)C1c1ccc(OCCCN2CCOCC2)cc1` (centres unmarked) [Compound 1509], `O=C(Oc1ccc(Cl)cc1)N1CCc2c([nH]c3ccc(Cl)cc23)C1c1ccc(OCCCOCCN2CCOCC2)cc1` (centres unmarked) [Compound 1555] is lower in EC50: 40 to 200 nM for the first, < 8 nM for the second. The second is the more potent here.

First: CCOC(=O)N1CCc2c([nH]c3ccc(C#N)cc23)C1c1ccc(OC)cc1 (centres unmarked) [Compound 1512]
Second: CCOC(=O)N1CCc2c([nH]c3ccc(Cl)cc23)C1c1ccc(OCC#N)cc1 (centres unmarked) [Compound 1543]
The EC50 of the first is higher: 200 to 1000 nM for the first, < 8 nM for the second.

`COc1ccc(C2c3[nH]c4ccc(C#N)cc4c3CCN2C(=O)Oc2ccc(Cl)cc2)cc1` (centres unmarked) [Compound 1513] and `COc1ccc(C2c3[nH]c4ccc(C#N)cc4c3CCN2C(=O)Oc2ccc(F)cc2)cc1` (centres unmarked) [Compound 1514] fall in the same range of EC50: 40 to 200 nM for the first, 40 to 200 nM for the second.

Compared with `COc1ccc(C2c3[nH]c4ccc(C#N)cc4c3CCN2C(=S)Oc2ccc(F)cc2)cc1` (centres unmarked) [Compound 1515], `N#CCOc1ccc(C2c3[nH]c4ccc(Cl)cc4c3CCN2C(=O)Oc2ccc(F)cc2)cc1` (centres unmarked) [Compound 1548] is lower in EC50: 40 to 200 nM for the first, 8 to 40 nM for the second.

First: COc1ccc(C2NCCc3c2[nH]c2ccc(C#N)cc32)cc1 (centres unmarked) [Compound 1519]
Second: N#CCOc1ccc(C2NCCc3c2[nH]c2ccc(Cl)cc32)cc1 (centres unmarked) [Compound 1550]
The EC50 of the first is higher: > 1000 nM for the first, 200 to 1000 nM for the second. The second is the more potent here.

`CCOC(=O)N1CCc2c([nH]c3cccc(Br)c23)C1c1ccc(OC)cc1` (centres unmarked) [Compound 1521] and `COc1ccc(C2c3[nH]c4cccc(Br)c4c3CCN2C(=O)OCCF)cc1` (centres unmarked) [Compound 1522] fall in the same range of EC50: 200 to 1000 nM for the first, 200 to 1000 nM for the second.

`CC#CCOC(=O)N1CCc2c([nH]c3cccc(Br)c23)C1c1ccc(OC)cc1` (centres unmarked) [Compound 1523] and `CC#CCOC(=O)N1CCc2c([nH]c3cccc(Cl)c23)C1c1ccc(OC)cc1` (centres unmarked) [Compound 1530] fall in the same range of EC50: 40 to 200 nM for the first, 40 to 200 nM for the second.

`COc1ccc(C2c3[nH]c4cccc(Br)c4c3CCN2C(=O)Oc2ccc(F)cc2)cc1` (centres unmarked) [Compound 1524] and `COc1ccc(C2c3[nH]c4cccc(Br)c4c3CCN2C(=O)Oc2ccc(Cl)cc2)cc1` (centres unmarked) [Compound 1525] fall in the same range of EC50: 40 to 200 nM for the first, 40 to 200 nM for the second.

`COc1ccc(C2c3[nH]c4cccc(Br)c4c3CCN2C(=O)Oc2ccc(Br)cc2)cc1` (centres unmarked) [Compound 1526] and `COc1ccc(C2c3[nH]c4cccc(Cl)c4c3CCN2C(=O)Oc2ccc(Br)cc2)cc1` (centres unmarked) [Compound 1532] fall in the same range of EC50: 40 to 200 nM for the first, 40 to 200 nM for the second.

`COc1ccc(OC(=O)N2CCc3c([nH]c4cccc(Br)c34)C2c2ccc(OC)cc2)cc1` (centres unmarked) [Compound 1527] and `COc1ccc(OC(=O)N2CCc3c([nH]c4cccc(Cl)c34)C2c2ccc(OC)cc2)cc1` (centres unmarked) [Compound 1534] fall in the same range of EC50: 200 to 1000 nM for the first, 200 to 1000 nM for the second.

First: COc1ccc(C2c3[nH]c4cccc(Br)c4c3CCN2C(=O)Oc2ccccc2Cl)cc1 (centres unmarked) [Compound 1528]
Second: COc1ccc(C2c3[nH]c4cccc(Cl)c4c3CCN2C(=O)Oc2ccc(F)cc2)cc1 (centres unmarked) [Compound 1533]
The EC50 of the first is higher: > 1000 nM for the first, 40 to 200 nM for the second.

First: COc1ccc(C2c3[nH]c4cccc(Cl)c4c3CCN2C(=O)OCCF)cc1 (centres unmarked) [Compound 1529]
Second: COc1ccc(C2c3[nH]c4cccc(Cl)c4c3CCN2C(=O)Oc2ccc(Cl)cc2)cc1 (centres unmarked) [Compound 1531]
The EC50 of the first is higher: 200 to 1000 nM for the first, 40 to 200 nM for the second. The second is the more potent here.

First: O=C(Oc1ccc(Cl)cc1)N1CCc2c([nH]c3ccc(Cl)cc23)C1c1ccc(OCCCN2CCC(O)CC2)cc1 (centres unmarked) [Compound 1537]
Second: CN1CCC(OCCCOc2ccc(C3c4[nH]c5ccc(Cl)cc5c4CCN3C(=O)Oc3ccc(Cl)cc3)cc2)CC1 (centres unmarked) [Compound 1554]
The EC50 of the first is lower: < 8 nM for the first, > 1000 nM for the second.

First: O=C(Oc1ccc(C2NCCc3c2[nH]c2ccc(Cl)cc32)cc1)c1ccccc1 (centres unmarked) [Compound 1540]
Second: COc1ccc(C2c3[nH]c4ccc(Cl)cc4c3CCN2c2nc(-c3ccccc3)cs2)cc1 (centres unmarked) [Compound 1598]
The EC50 of the first is higher: 8 to 40 nM for the first, < 8 nM for the second. The second is the more potent here.

`CC(C)=CC(=O)N1CCc2c([nH]c3ccc(Cl)cc23)C1c1ccc(OCCCn2cncn2)cc1` (centres unmarked) [Compound 1542] and `CCOC(=O)N1CCc2c([nH]c3ccc(Cl)cc23)[C@@H]1c1ccc(Oc2cnccn2)cc1` [Compound 1574] cannot be ordered by EC50: < 8 nM for the first, < 8 nM for the second.

First: N#CCOc1ccc(C2c3[nH]c4ccc(Cl)cc4c3CCN2C(=O)OCCF)cc1 (centres unmarked) [Compound 1544]
Second: CCOC(=O)N1CCc2c([nH]c3ccc(Cl)cc23)[C@@H]1c1ccc(Oc2ncccn2)cc1 [Compound 1573]
The EC50 of the first is higher: 8 to 40 nM for the first, < 8 nM for the second.

`CS(=O)(=O)CCCOc1ccc(C2c3[nH]c4ccc(Cl)cc4c3CCN2C(=O)Oc2ccc(Cl)cc2)cc1` (centres unmarked) [Compound 1551] and `C[Si](C)(C)CCS(=O)(=O)N1CCC(Oc2ccc(C3c4[nH]c5ccc(Cl)cc5c4CCN3C(=O)Oc3ccc(Cl)cc3)cc2)CC1` (centres unmarked) [Compound 1581] cannot be ordered by EC50: < 8 nM for the first, < 8 nM for the second.

First: C[Si](C)(C)CCS(=O)(=O)N1CCC(Oc2ccc(C3NCCc4c3[nH]c3ccc(Cl)cc43)cc2)CC1 (centres unmarked) [Compound 1556]
Second: C[Si](C)(C)CCS(=O)(=O)N1CCC(Oc2ccc(C3c4[nH]c5ccc(Cl)cc5c4CCN3c3ncccn3)cc2)CC1 (centres unmarked) [Compound 1583]
The EC50 of the first is higher: 40 to 200 nM for the first, < 8 nM for the second. The second is the more potent here.

`CCOC(=O)N1CCc2c([nH]c3ccc(Cl)cc23)[C@@H]1c1ccc(Oc2ccc3ccccc3n2)cc1` [Compound 1575] and `CCOC(=O)c1csc(N2CCc3c([nH]c4ccc(Cl)cc34)C2c2ccc(OC)cc2)n1` (centres unmarked) [Compound 1585] cannot be ordered by EC50: < 8 nM for the first, < 8 nM for the second.

`CC#CCOC(=O)N1CCc2c([nH]c3ccc(Cl)cc23)C1c1ccc(OC2CCOCC2)cc1` (centres unmarked) [Compound 1576] and `CC#CCOC(=O)N1CCc2c([nH]c3ccc(Cl)cc23)[C@@H]1c1ccc(OC2CCOCC2)cc1` [Compound 1603] cannot be ordered by EC50: < 8 nM for the first, < 8 nM for the second.

`CC#CCOC(=O)N1CCc2c([nH]c3ccc(Cl)cc23)C1c1ccc(OC2CCN(S(=O)(=O)CC[Si](C)(C)C)CC2)cc1` (centres unmarked) [Compound 1579] and `C[Si](C)(C)CCS(=O)(=O)N1CCC(Oc2ccc(C3c4[nH]c5ccc(Cl)cc5c4CCN3C(=O)Oc3ccc(F)cc3)cc2)CC1` (centres unmarked) [Compound 1580] cannot be ordered by EC50: < 8 nM for the first, < 8 nM for the second.

First: Clc1ccc2[nH]c3c(c2c1)CCN(c1ncccn1)C3c1ccc(OC2CCOCC2)cc1 (centres unmarked) [Compound 1582]
Second: COc1ccc(C2c3[nH]c4ccc(Cl)cc4c3CCN2c2nc(-c3ccccn3)cs2)cc1 (centres unmarked) [Compound 1590]
The EC50 of the first is lower: < 8 nM for the first, 8 to 40 nM for the second.

First: COc1ccc(C2c3[nH]c4ccc(Cl)cc4c3CCN2c2nc(C)cs2)cc1 (centres unmarked) [Compound 1584]
Second: COc1ccc(C2c3[nH]c4ccc(Cl)cc4c3CCN2c2nc(O)cs2)cc1 (centres unmarked) [Compound 1586]
The EC50 of the first is lower: < 8 nM for the first, 40 to 200 nM for the second. The first is the more potent here.

`COc1ccc(C2c3[nH]c4ccc(Cl)cc4c3CCN2c2nc(C(C)(C)C)cs2)cc1` (centres unmarked) [Compound 1587] and `COc1ccc(C2c3[nH]c4ccc(Cl)cc4c3CCN2c2nc(C(F)(F)F)cs2)cc1` (centres unmarked) [Compound 1589] cannot be ordered by EC50: < 8 nM for the first, < 8 nM for the second.

First: COc1ccc(C2c3[nH]c4ccc(Cl)cc4c3CCN2c2nc(C)c(C(=O)N(C)C)s2)cc1 (centres unmarked) [Compound 1588]
Second: COc1ccc(C2c3[nH]c4ccc(Cl)cc4c3CCN2c2nc(CC(C)=O)cs2)cc1 (centres unmarked) [Compound 1596]
The EC50 of the first is higher: 40 to 200 nM for the first, 8 to 40 nM for the second.

`COc1ccc(-c2csc(N3CCc4c([nH]c5ccc(Cl)cc45)C3c3ccc(OC)cc3)n2)cc1` (centres unmarked) [Compound 1591] and `COc1ccc(C2c3[nH]c4ccc(Cl)cc4c3CCN2c2nc(-c3ccc(Cl)cc3)cs2)cc1` (centres unmarked) [Compound 1597] cannot be ordered by EC50: < 8 nM for the first, < 8 nM for the second.

`COc1ccc(C2c3[nH]c4ccc(Cl)cc4c3CCN2c2nc(-c3cccnc3)cs2)cc1` (centres unmarked) [Compound 1592] and `COc1ccc(C2c3[nH]c4ccc(Cl)cc4c3CCN2c2nc(-c3ccncc3)cs2)cc1` (centres unmarked) [Compound 1594] fall in the same range of EC50: 40 to 200 nM for the first, 40 to 200 nM for the second.

Compared with `COc1ccc(C2c3[nH]c4ccc(Cl)cc4c3CCN2C(=N)SC2CCCC2=O)cc1` (centres unmarked) [Compound 1593], `COc1ccc(C2c3[nH]c4ccc(Cl)cc4c3CCN2c2nc(-c3ccsc3)cs2)cc1` (centres unmarked) [Compound 1595] is lower in EC50: 40 to 200 nM for the first, 8 to 40 nM for the second.

`COc1ccc(C2c3[nH]c4ccc(Cl)cc4c3CCN2c2nc(-c3ccccc3)c(C(=O)c3ccc(Cl)cc3)s2)cc1` (centres unmarked) [Compound 1600] and `COc1ccc(C(=O)c2sc(N3CCc4c([nH]c5ccc(Cl)cc45)C3c3ccc(OC)cc3)nc2-c2ccccc2)cc1` (centres unmarked) [Compound 1601] cannot be ordered by EC50: < 8 nM for the first, < 8 nM for the second.
